Laboratory results reported in PMC1971568 (British Journal of Cancer, 1990).
Where two headings read alike, the source gives them in different places.

How the values were obtained:
[1] = Localisation of antibody-enzyme conjugate: enzyme activity in tissues, CC3 model; settings: tissue homogenate incubated at 37C with prodrug 34 µg ml-1 (87 µM)
[2] = system: carboxypeptidase G2 (CPG2); design: method as in Bagshawe et al., 1988; settings: ref Bagshawe et al., 1988; cited from earlier work
CC3 tumours = system: CC3 tumours; design: method as in Bagshawe et al., 1988; settings: single course of two phase prodrug therapy (antibody-enzyme conjugate then prodrug); ref Bagshawe et al., 1988; cited from earlier work
[3] = system: human JAR choriocarcinoma cell line; settings: cited from earlier work
[4] = in vivo, ip
LS174T colonic cell line = system: LS174T colonic cell line; design: method as in Springer et al., 1990; settings: ref Springer et al., 1990; cited from earlier work
[5] = Nu/Nu, mouse, in vivo, iv

O=C(O)CC[C@H](NC(=O)c1ccc(N(CCCl)CCCl)cc1)C(=O)O [prodrug, 4-(bis (2-chloroethyl)amino) benzoyl-L-glutamic acid]
Activation of prodrug by tissues of mice which did not receive conjugate [1]: No activation | Affinity of the enzyme for prodrug [2]: very high affinity | Growth of CC3 tumours (CC3 tumours): marked inhibition of growth | Cytotoxicity against JAR cells in culture [3]: very little cytotox- icity | AUC, area under plasma concentration versus time curve from zero to infinity ([4]; Nu/Nu, mouse): 7.09 | Cl, total body clearance ([4]; Nu/Nu, mouse, 41 umol/kg): 1.18 | Vd, apparent volume of distribution ([4]; Nu/Nu, mouse, 41 umol/kg): 0.07 L | AUC in liver ([4]; 41 umol/kg): 62 | AUC in tumour ([4]; 41 umol/kg): 3.3 | Cytotoxicity against LS174T cells in culture (LS174T colonic cell line): very little cytotox- icity | AUC, area under plasma concentration versus time curve from zero to infinity [5]: 15.4
